Entries after “also recorded” stand apart in the source; their conditions may differ. Where a SMILES comes first, the peptide text is derived from it. The star is where a group is joined. Cbz = O=C(OCc1ccccc1)*; CH2F = FC*
Legend:
[1] = test system: bovine cartilage explants; assay: Load-induced chondrocyte apoptosis (TUNEL) in bovine cartilage explants; assay type: cell-based
Excerpt: Cartilage explants. Macroscopically normal weight bearing portions of freshly slaughtered skeletally mature bovine femoral condyles were selected from animals between 2 and 6 years of age (Animal Technologies, Austin, Tex.). Only joints without visible signs of degeneration or aging were selected. Using sterile techniques, full thickness cartilage was separated from underlying subchondral bone with a scalpel and 5 mm diameter cylindrical explants, ranging from 1 to 1.8 mm in height, cored out using a dermal punch (Acuderm, Inc., Ft. Lauderdale, Fla.). Explants taken from adjacent sites were used as matched controls for each group in each experiment to minimize variation in cartilage response due to differences in thickness and location within the joint. Each explant was weighed and allowed to stabilize at 37° C. and 5% CO2 for 48 hours in 1 ml of Dulbecco's modified Eagle's medium (DMEM) supplemented with 10% fetal bovine serum (FBS), L-glutamine, antibiotics and 50 μg/ml ascorbic acid.
(§1) Loading apparatus and procedure. […] Stress and strain data were recorded during the test.
Apoptosis detection. […] TUNEL positive cells emit a bright green fluorescence while TUNEL negative cells display an orange color due to propidium iodide counterstaining. […] Cells in all areas were counted and divided into TUNEL positive or TUNEL negative. […]

[2] = test system: bovine cartilage explants; assay: Glycosaminoglycan (GAG) release assay, mechanically injured bovine cartilage explants; assay type: cell-based; conditions: loaded bovine explants treated with caspase inhibitor
Description: Glycosaminoglycan release assay. To estimate GAG depletion and release, the concentration of sulfated glycosaminoglycans was measured using […] (DMMB) as a monitor of spectrophotometric changes which occur during the formation of the sulfated GAG dye complex (Farndale, et al. (1986) Biochim. Biophys. Acts. 883, 173-177, Goldberg, et al. (1993) Agents Actions 39 Spec No, C163-C165). For GAG content measurement, samples were digested in papain and collagenase and the concentration of sulfated GAG measured using DMMB. To generate a standard curve, chondroitin-6-sulfate (Sigma, St. Louis, Mo.) was used at concentrations between 1 and 200 μg/ml. GAG released in media was normalized to the pooled mean GAG content of Control (uninjured) cartilage explants and expressed as a percentage of total GAG content.
Inhibition of apoptosis. To determine whether apoptosis could be prevented by caspase inhibition, 12 explants were loaded at 23 MPa (High Load) and cultured for 48 hours. […] Percent apoptosis and GAG release in media was measured as described above.
Release of sulfated glycosaminoglycans (GAG) was analyzed as a measure of the extent of damage sustained by the explant. […] GAG depletion was assessed by dimethylene blue binding assays of the culture supernatants and this correlated with the reduced of safranin O staining of the cartilage sections.

[3] = test system: human cartilage explants; assay: Load-induced chondrocyte apoptosis (TUNEL) in human cartilage explants; assay type: cell-based; conditions: loaded explants (30% strain) cultured in 100 mM z-VAD.fmk after injury, 96 hours post-injury
Excerpt: Cartilage explants. Macroscopically normal tibial and femoral articular surfaces were selected from human cadaver donors between 18 and 45 years of age. Using sterile techniques, full thickness cartilage was separated from underlying subchondral bone with a scalpel. 5 mm diameter cylindrical explants, ranging from 2 to 2.8 mm in thickness, cored out using a dermal punch (Acuderm, Inc., Ft. Lauderdale, Fla.). Explants taken from adjacent sites were used as matched controls for each group in each experiment to minimize variation in cartilage response due to differences in thickness and location within the joint. […]
as §1
Caspase inhibition. […] Percentage apoptosis was measured at 96 hours post-injury in three groups (control, loaded, and loaded with z-VAD.fmk) with ten explants each in two separate experiments.
Apoptosis detection. […] This was detected by immunohistochemical staining with M30 (Cytodeath, Boehringer Mannheim, Eugene, Oreg.), a monoclonal antibody that recognizes the neo-epitope exposed in early apoptosis.
Chondrocyte apoptosis after mechanical injury to human cartilage. […] GAG release and percentage of cells undergoing apoptosis were measured at 96 hours after injury. […]

[4] = test system: femoral and tibial articular cartilage; assay: Intraarticular injection of caspase inhibitor in rabbits with anterior cruciate ligament transection (ACLT); assay type: in vivo, New Zealand White rabbits
Description: Intraarticular injection of caspase inhibitor in rabbits with ligament transection. A pilot study was performed to assess feasibility and efficacy of caspase inhibition in vivo. Eight New Zealand White rabbits were divided into anterior cruciate ligament transection (ACLT) and ACLT+caspase inhibitor (CI) groups. Both groups underwent bilateral ACLT. The ACLT+CI group was treated with intra-articular injections of 25 μg of z-VAD.fmk three times per week for six weeks while the control group received saline injections. Rabbits were euthanised at six weeks and femoral and tibial articular cartilage evaluated by India ink staining and histologic Mankin grading after Safranin-O stain.

## COC(=O)CC(NC(=O)C(C)NC(=O)C(NC(=O)OCc1ccccc1)C(C)C)C(=O)CF (stereo not drawn) [z-VAD.fmk, benzyloxycarbonyl-Val-Ala-Asp (OMe) fluoromethylketone] (Cbz-Val-Ala-Asp(OMe)-CH2F; configuration not given here)
[1]; high and intermediate load groups
  reduction in the apoptosis rate: > 50%
[1]; loaded bovine explants, z-VAD.fmk 100 μM, 48 hours
  chondrocyte apoptosis after mechanical injury (in words): reduced chondrocyte apoptosis
[2]
  GAG release / GAG depletion (in words): reduction in GAG release; also recorded: normalization of the GAG depletion
[3]
  reduction in apoptotic rates: 50%
[4]; 25 μg intra-articular three times per week for six weeks, bilateral ACLT
  reduction of the size of the cartilage lesions (surface area, India ink stained femoral condyles): ~80%
[4]; ACLT+CI group, six weeks
  cartilage lesions under India ink examination (in words): lesions that were smaller in area
[4]; ACLT+CI group, six weeks, 4/8 knees
  knees with Mankin grade 5 or higher: 50%
